In this assay the target is human 5HT2c receptor (VSV Isoform) (Homo sapiens, UniProt P28335, I156V/I160V/N158S). Kind of assay: cell-based. To be noted: 5-HT2c EC50 (hVSV, μM).
Chain of human 5HT2c receptor (VSV Isoform) (P28335 33-458 I156V/N158S/I160V limits assumed): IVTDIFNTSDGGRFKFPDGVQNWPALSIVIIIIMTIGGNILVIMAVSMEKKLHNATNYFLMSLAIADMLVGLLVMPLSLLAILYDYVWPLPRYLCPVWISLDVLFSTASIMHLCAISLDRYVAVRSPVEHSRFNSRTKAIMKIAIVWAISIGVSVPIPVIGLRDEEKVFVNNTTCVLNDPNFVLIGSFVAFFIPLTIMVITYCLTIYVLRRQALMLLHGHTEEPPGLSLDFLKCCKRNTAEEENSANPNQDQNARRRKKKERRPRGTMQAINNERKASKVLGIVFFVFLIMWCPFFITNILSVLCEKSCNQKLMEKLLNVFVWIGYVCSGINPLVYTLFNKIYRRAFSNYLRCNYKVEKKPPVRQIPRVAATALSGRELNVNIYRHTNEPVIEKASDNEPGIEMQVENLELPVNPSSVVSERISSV

Turning to `Cc1cc2c(cc1Cl)C1CNCC1C2C` (stereo not drawn) [Example 23, 5-Chloro-6-methyl-8-methyl-1,2,3,3a,8,8a-hexahydroindeno[1,2-c]pyrrole], the concentration giving a half-maximal response (EC50) (usually the midpoint of the concentration-response curve) is under 1 µM.
In turn, `Cc1cc2c(cc1Br)C1CNCC1C2C` (stereo not drawn) [Example 24, 5-Bromo-6-methyl-8-methyl-1,2,3,3a,8,8a-hexahydroindeno[1,2-c]pyrrole] gave an EC50 of under 1 µM.
As to `CC1c2cc(Cl)c(Cl)cc2C2CNCC12` (stereo not drawn) [Example 26, 5,6-Dichloro-8-methyl-1,2,3,3a,8,8a-hexahydroindeno[1,2-c]pyrrole], the EC50 is under 0.1 µM.
`CC1c2c(ccc(Cl)c2Cl)C2CNCC12` (stereo not drawn) [Example 27, 6,7-Dichloro-8-methyl-1,2,3,3a,8,8a-hexahydroindeno[1,2-c]pyrrole] displayed a concentration giving a half-maximal response (EC50) of under 0.1 µM.
In the case of `CC1c2cc(Cl)cc(Cl)c2C2CNCC12` (stereo not drawn) [Example 28, 4,6-Dichloro-8-methyl-1,2,3,3a,8,8a-hexahydroindeno[1,2-c]pyrrole], the EC50 was under 0.1 µM.
The compound `COc1c(Cl)cc2c(c1Cl)C1CNCC1C2C` (stereo not drawn) [Example 38, 4,6-Dichloro-5-Methoxy-8-methyl-1,2,3,3a,8,8a-hexahydroindeno[1,2-c]pyrrole] came in with a half-maximal effective concentration (EC50) of under 0.1 µM.
Take `CC1c2cc(Cl)c(OCC3CC3)cc2C2CNCC12` (stereo not drawn) [Example 39, 5-Cyclopropylmethoxy-6-chloro-8-methyl-1,2,3,3a,8,8a-hexahydroindeno[1,2-c]pyrrole]: the EC50 is under 1 µM.
`CC1c2ccc(OC(F)(F)F)cc2C2CNCC12` (stereo not drawn) [Example 40, 5-Trifluoromethoxy-8-methyl-1,2,3,3a,8,8a-hexahydroindeno[1,2-c]pyrrole] returned a half-maximal effective concentration (EC50) of over 10 µM.
Regarding `CCC1c2ccc(OC)cc2C2CNCC12` (stereo not drawn) [Example 48, 5-Methoxy-8-ethyl-1,2,3,3a,8,8a-hexahydroindeno[1,2-c]pyrrole], the EC50 is over 10 µM.
The figure for `COc1cc2c(cc1Cl)C(=O)C1CNCC21` (stereo not drawn) [Example 53, 5-Methoxy-6-chloro-2,3,3a,8a-tetrahydro-1H-2-aza-cyclopenta[a]inden-8-one] is under 1 µM; for `COc1ccc2c(c1Cl)C1CNCC1C2O` (stereo not drawn) [Example 54, 4-Chloro-5-methoxy-2,3,3a,8a-tetrahydro-1H-2-aza-cyclopenta[a]inden-8-ol] it is under 1 µM; for `COc1cc2c(cc1Cl)C(O)C1CNCC21` (stereo not drawn) [Example 55, 5-Methoxy-6-chloro-2,3,3a,8a-tetrahydro-1H-2-aza-cyclopenta[a]inden-8-ol] it is under 10 µM.

These data come from patent US8716324B2, “Tricyclic indeno-pyrrole derivatives as serotonin receptor modulators” (Athersys, Inc., priority 2004, dated 2014).
